Test results taken from patent EP0149197B2, “Pharmaceutical compositions containing drugs which are sparingly soluble in water or instable and methods for their preparation” (priority 1983, dated 1985).
≈ marks a conversion by molar mass, not a printed value. Where two headings read alike, the source gives them in different places. Marks after values point to notes of the source that are not given here.

Columns and labels:
[1] = Saturation solubility in phosphate buffer with and without 10 % hydroxypropyl-β-cyclodextrin (MS 0.35); conditions: for Verh.S1 zu S2: given as 1: x; for solubility thermodynamic at 24 h: phosphate buffer
Description: A. Unter Verwendung einer 10 %-igen Hydroxypropyl-β-cyclodextrinlösung (MS 0.35) in Phosphatpufferlösung wurde unter denselben Bedingungen wie in Beispiel 1 die Sättigungslöslichkeit bei 25°C für verschiedene Arzneistoffe bestimmt. In Tabelle 1 sind die Sättigungslöslichkeit S1 in Phosphatpufferlösung und S2 in Phosphatpufferlösung unter Zusatz von 10 % Hydroxypropyl-β-cyclodextrin angegeben. Tabelle 1

[2] = Storage stability of indometacin solutions at 21°C, HPLC content; assay type: physicochemical; conditions: aqueous buffer; concentration of the saturated solution in phosphate buffer (solution A); read-out: gesättigte Lösung in Phosphatpufferlösung
Description: In 10 ml Phosphatpufferlösung wurden bei 25°C 0,7 g Hydroxyethyl-β-cyclodextrin (MS 0.43) und 0,04 g Indometacin bis zur klaren Lösung eingearbeitet. Diese wurde durch ein Membranfilter (0,22 µm) filtriert und unter Laminarflow in eine vorsterilisierte Injektionsflasche abgefüllt, die bei 21°C eingelagert wurde (B). Parallel dazu wurde eine gesättigte Indometaeinlösung in Phosphatpufferlösung (0,21 mg/ml) unter gleichen Bedingungen aufbewahrt (A). Die hochdruckflüssigkeitschromatographisch ermittelten Wirkstoff-Konzentrationen sind in Tabelle 3 wiedergegeben. Die wesentlich verbesserte Stabilität des erfindungsgemäßen Präparates ist offensichtlich. Tabelle 3

[3] = in water; cited from earlier work
[4] = Acute intravenous toxicity in rats; assay type: in vivo, Ratten; conditions: rat, in vivo, iv
From the text: (§1) Die akute intravenöse Toxizität von einigen β-Cyclodextrinen wurde an Ratten untersucht, wobei die nachfolgenden Ergebnisse erhalten wurden. Dabei zeigte sich, daß die Toxizität der erfindungsgemäß eingesetzten Derivate überraschend eine ganze Größenordnung niedriger ist. Tabelle 5

[5] = phosphate buffer, pH 6.6
From the text: Die in den Beispielen genannte Phosphatpuffer-Lösung hatte einen pH-Wert von 6.6 und folgende Zusammensetzung:

[6] = Saturation solubility with and without 4 % hydroxypropyl-methyl-β-cyclodextrin (DS 0,96; MS 0,43); assay type: physicochemical
From the text: B. In ähnlicher Weise wurde die Löslichkeit von Arzneistoffen in einer 4 %-igen wässrigen Lösung von Hydroxypropyl-methyl-β-cyclodextrin (DS = 0,96; MS = 0,43) untersucht. Die erhaltenen Ergebnisse sind in der nachfolgenden Tabelle 2 zusammengefaßt, wobei für jeden Arzneistoff das Verhältnis R von Sättigungslöslichkeit in Wasser bzw. beim angegebenen pH-Wert mit und ohne Zusatz des β-Cyclodextrinderivats angegeben ist.

[7] = with the 2,6-Di-O-methylderivat of β-cyclodextrin; cited from earlier work
[8] = Dissolution rate of medroxyprogesterone acetate from tablets; assay type: physicochemical; conditions: tablet with Hydroxyethyl-β-cyclodextrin (MS 0.43) versus same tablet excipients without β-cyclodextrin ether
Description: In 100 ml Wasser wurden 7 g Hydroxyethyl-β-cyclodextrin (MS 0.43) sowie 0,5 g Medroxyprogesteronacetat gelöst. Anschließend wurde das Wasser auf einem Rotationsverdampfer abgezogen. Der Rückstand […] wurde pulverisiert und mit 366 mg Calcium-hydrogenphosphat. 2H2O, 60 mg Maisstärke, 120 mg Cellulosepulver(mikrokristallin), 4,2 mg hochdisperse Kieselsäure (Aerosil® 200) und 4,8 mg Magnesiumstearat zu Tabletten mit einem Endgewicht von 630,0 mg und pro Einzeldosis 5 mg Wirkstoff verarbeitet. Die Lösungsgeschwindigkeit des Medroxyprogesteronacetats aus dieser Zubereitung ist etwa 21 mal höher als bei Einsatz der gleichen Tablettenhilfsstoffe ohne Zusatz des β-Cyclodextrinethers.

[9] = test system: roten Blutkörperchen (menschlichen Ursprungs); assay type: cell-based; conditions: human, 30 min
Description: In einer weiteren Versuchsreihe wurde die hämolytische Wirkung der Methylether gemäß DE-A-3 118 218 mit derjenigen eines erfindungsgemäß verwendeten Ethers verglichen. Dazu wurden 100 µl einer physiologischen Kochsalzlösung mit einem Cyclodextringehalt von 10 %, 800 µl eines Puffers (400 mg MOPS, 36 mg Na2HPO4·2 H2O, 1,6 g NaCl in 200 ml H2O) und 100 µl einer Suspension von roten Blutkörperchen (menschlichen Ursprungs, dreimal mit Kochsalzlösung gewaschen), 30 Min. lang bei 37°C gemischt. Anschließend wurde zentrifugiert und die Extinktion bei 540 mn bestimmt.
Kontrollen: • a) 100 µl Kochsalzlösung + Puffer → 0 % Hämolyse • b) 900 µl Wasser → 100 % Hämolyse
Die gefundenen Ergebnisse sind in der nachfolgenden Tabelle 6 zusammengefaßt, wobei die Konzentrationen angegeben sind, bei denen eine 50 %-ige bzw. eine 100 % Hämolyse stattfand. Tabelle 6

Ratten = assay: Acute intravenous toxicity in rats; assay type: in vivo; conditions: rat, i.v.
From the text: as §1

[10] = in water, 4 % Hydroxypropyl-methyl-β-cyclodextrin

Question: Which results are given for COc1ccc2c(c1)c(CC(=O)O)c(C)n2C(=O)c1ccc(Cl)cc1 [Indometacin]?
Answer: Verh.S1 zu S2 [1]: 30,1; solubility thermodynamic at 24 h ([1]; 10% hp-beta-cd, pH 6.6): 5720 µg/mL (≈ 16000 µM); solubility thermodynamic at 24 h ([1]; pH 6.6, aqueous buffer): 190 µg/mL (≈ 531 µM); solubility [2]: 210 µg/mL (≈ 587 µM)

Question: With OC[C@H]1O[C@@H]2O[C@H]3[C@H](O)[C@@H](O)[C@@H](O[C@H]4[C@H](O)[C@@H](O)[C@@H](O[C@H]5[C@H](O)[C@@H](O)[C@@H](O[C@H]6[C@H](O)[C@@H](O)[C@@H](O[C@H]7[C@H](O)[C@@H](O)[C@@H](O[C@H]8[C@H](O)[C@@H](O)[C@@H](O[C@H]1[C@H](O)[C@H]2O)O[C@@H]8CO)O[C@@H]7CO)O[C@@H]6CO)O[C@@H]5CO)O[C@@H]4CO)O[C@@H]3CO [β-Cyclodextrin] as the compound, how does the Wasserlöslichkeit [3] read?
Answer: The Wasserlöslichkeit was 1,8 g pro 100 ml.

Question: And the LD50 [4]?
Answer: Its LD50 is 453 mg/kg.

Question: For “Hydroxyethyl-β-cyclodextrin [Hydroxyethyl-β-cyclodextrin (MS 0.43)]”, which “Sättigungslöslichkeit des Cyclodextrinderivates im Puffer” value [5] is on record?
Answer: Its value is 7,2 g/100 ml.

Question: Which “Verhältnis R von Sättigungslöslichkeit mit und ohne Zusatz des β-Cyclodextrinderivats” value [6] does the source give for CC(=O)N1CCN(c2ccc(OCC3COC(Cn4ccnc4)(c4ccc(Cl)cc4Cl)O3)cc2)CC1 (stereo not drawn) [Ketoconazol] here?
Answer: Its value is 85.

Question: Which results are given for C[C@@H]1C[C@H]2[C@@H]3CCC4=CC(=O)C=C[C@]4(C)[C@@]3(F)[C@@H](O)C[C@]2(C)[C@@]1(O)C(=O)CO [Dexamethason]?
Answer: Verh.S1 zu S2 [1]: 172,0; solubility thermodynamic at 24 h ([1]; 10% hp-beta-cd, pH 6.6): 14300 µg/mL (≈ 36400 µM); solubility thermodynamic at 24 h ([1]; pH 6.6, aqueous buffer): 83 µg/mL (≈ 211 µM)

Question: Which “Verhältnis R von Sättigungslöslichkeit mit und ohne Zusatz des β-Cyclodextrinderivats” value ([6]; pH 2) does the source give for CCC(C)n1ncn(-c2ccc(N3CCN(c4ccc(OCC5COC(Cn6cncn6)(c6ccc(Cl)cc6Cl)O5)cc4)CC3)cc2)c1=O (stereo not drawn) [Itraconazol] here?
Answer: The value was 75.

Question: What about the “Verhältnis R von Sättigungslöslichkeit mit und ohne Zusatz des β-Cyclodextrinderivats” value ([6]; pH 5) of the same compound?
Answer: Its value is 96.

Question: For CN(C)C(=O)C(CCN1CCC(O)(c2ccc(Cl)cc2)CC1)(c1ccccc1)c1ccccc1 [Loperamid], which “Verhältnis R von Sättigungslöslichkeit mit und ohne Zusatz des β-Cyclodextrinderivats” value [6, 10] is on record?
Answer: The value was 62.

Question: Which “Verhältnis R von Sättigungslöslichkeit mit und ohne Zusatz des β-Cyclodextrinderivats” value ([6]; pH 7,4, 4 % Hydroxypropyl-methyl-β-cyclodextrin) does the source give for Levocabastin here?
Answer: Its value is 8.

Question: And the “Verhältnis R von Sättigungslöslichkeit mit und ohne Zusatz des β-Cyclodextrinderivats” value ([6]; pH 9,5, 4 % Hydroxypropyl-methyl-β-cyclodextrin)?
Answer: Its value is 81.

Question: For C[C@H]1O[C@@H](O[C@H]2[C@@H](O)C[C@H](O[C@H]3[C@@H](O)C[C@H](O[C@H]4CC[C@@]5(C)[C@H](CC[C@@H]6[C@@H]5CC[C@]5(C)[C@@H](C7=CC(=O)OC7)CC[C@]65O)C4)O[C@@H]3C)O[C@@H]2C)C[C@H](O)[C@@H]1O [Digitoxin], which “Steigerung der Löslichkeit in Wasser” value [7] is on record?
Answer: The value was 81,6 -fache.

Question: Which Lösungsgeschwindigkeit [8] does the source give for CC(=O)OC1(C(C)=O)CCC2C3CC(C)C4=CC(=O)CCC4(C)C3CCC21C (stereo not drawn) [Medroxyprogesteronacetat] here?
Answer: The Lösungsgeschwindigkeit was about 21 mal höher.

Question: Which “Verh.S1 zu S2” value [1] does the source give for CN1C(=O)CN=C(c2ccccc2)c2cc(Cl)ccc21 [Diazepam] here?
Answer: Its value is 29,4.

Question: With Methyl-β-CD [Methyl-β-CD (DS = 1,79)] as the compound, how does the “C50 % (Konzentration, bei der eine 50 %-ige Hämolyse stattfand)” value [9] read?
Answer: The value was 0,53%.

Question: What about the “C100 % (Konzentration, bei der eine 100 % Hämolyse stattfand)” value [9] of the same compound?
Answer: The value was 0,8%.

Question: With CCOC(=O)c1cncn1[C@H](C)c1ccccc1 [Etomidat] as the compound, how does the “Verhältnis R von Sättigungslöslichkeit mit und ohne Zusatz des β-Cyclodextrinderivats” value [6, 10] read?
Answer: The value was 8,5.

Question: For COC(=O)Nc1nc2cc(C(=O)c3ccc(F)cc3)ccc2[nH]1 [Flubendazol], which “Verhältnis R von Sättigungslöslichkeit mit und ohne Zusatz des β-Cyclodextrinderivats” value [6, 10] is on record?
Answer: Its value is 30.

Question: Which “Verhältnis R von Sättigungslöslichkeit mit und ohne Zusatz des β-Cyclodextrinderivats” value [6] does the source give for COc1cc(N)c(Cl)cc1C(=O)NC1CCN(CCCOc2ccc(F)cc2)CC1OC (stereo not drawn) [Cisaprid] here?
Answer: The value was 3.

Question: For CC(=O)[C@H]1CC[C@H]2[C@@H]3CCC4=CC(=O)CC[C@]4(C)[C@H]3CC[C@]12C [Progesteron], which “Verh.S1 zu S2” value [1] is on record?
Answer: Its value is 1083,0.

Question: And the solubility thermodynamic at 24 h ([1]; 10% hp-beta-cd, pH 6.6)?
Answer: Its solubility thermodynamic at 24 h is 7690 µg/mL (≈ 24500 µM).

Question: What about the solubility thermodynamic at 24 h ([1]; pH 6.6, aqueous buffer) of the same compound?
Answer: The solubility thermodynamic at 24 h was 7.1 µg/mL (≈ 22.6 µM).

Question: For “Dimethyl-β-cyclodextrin [Dimethyl-β-cyclodextrin (DS = 2,0)]”, which “LD50 bei Ratten (i.v.)” value (Ratten) is on record?
Answer: Its value is 200 - 207 mg/kg Körpergewicht.

Question: What about the “C50 % (Konzentration, bei der eine 50 %-ige Hämolyse stattfand)” value [9] of the same compound?
Answer: Its value is 0,33%.

Question: What about the “C100 % (Konzentration, bei der eine 100 % Hämolyse stattfand)” value [9] of the same compound?
Answer: The value was 0,5%.

Question: Which “Verhältnis R von Sättigungslöslichkeit mit und ohne Zusatz des β-Cyclodextrinderivats” value [6, 10] does the source give for Fc1ccc(C(c2ccc(F)cc2)N2CCN(C/C=C/c3ccccc3)CC2)cc1 [Flunarizin] here?
Answer: Its value is 18.

Question: With Hydroxypropyl-methyl-β-cyclodextrin as the compound, how does the “LD50 bei Ratten (i.v.)” value (Ratten) read?
Answer: The value was > 2000* mg/kg Körpergewicht.

Question: And the “C50 % (Konzentration, bei der eine 50 %-ige Hämolyse stattfand)” value [9]?
Answer: Its value is 1,5%.

Question: What about the “C100 % (Konzentration, bei der eine 100 % Hämolyse stattfand)” value [9] of the same compound?
Answer: Its value is 4%.

Question: And the “hämolytische Wirkung” value [9]?
Answer: The value was 5 bis 8 mal geringer.

Question: For Tubulazol, which “Verhältnis R von Sättigungslöslichkeit mit und ohne Zusatz des β-Cyclodextrinderivats” value [6, 10] is on record?
Answer: The value was 43.
